Laboratory results published in patent publication US20040052824A1, “Micellar colloidal pharmaceutical composition containing a lipophilic active principle” (priority 2000, published 2004).
Read-outs that look alike come from different tables or passages of the source.

Assays:
[1] = cited from earlier work
[2] = cited from earlier work; remark: listed apart in the source
[3] = dissolution trials: solubility of the active principle in the cosurfactant; format: physicochemical
[4] = cited from earlier work; remark: listed apart in the source
[5] = octanol/water partition coefficient

In the case of `CCCSc1ccc2nc(NC(=O)OC)[nH]c2c1` [albendazole], the “log P” value [1] is listed as 3.22.

For `CC(C)(Oc1ccc(CCNC(=O)c2ccc(Cl)cc2)cc1)C(=O)O` [bezafibrate], the “log P” value [1, 5] is given as 3.53.

In the case of `Cc1c([N+](=O)[O-])cc(C(C)(C)C)c(O)c1C(=O)Nc1ccc(Br)cc1C(F)(F)F` [bromoxanide], the “log P” value [1, 5] is given as 5.65.

In the case of `CC(=O)Oc1c(Br)cc(Cl)cc1C(=S)Nc1ccc(Br)cc1` [brotianide], the “log P” value [1, 5] is given as 5.30.

In the case of `CCN(CC)C(=O)Nc1ccc(OCC(O)CNC(C)(C)C)c(C(C)=O)c1` (centres unmarked) [celiprolol], the “log P” value [1, 5] is listed as 2.07.

In the case of `CC(C)(Oc1ccc(C2CC2(Cl)Cl)cc1)C(=O)O` (centres unmarked) [ciprofibrate], the “log P” value [1, 5] is listed as 3.15.

For `CC(=O)Oc1c(I)cc(I)cc1C(=O)Nc1ccc(Cl)cc1` [clioxanide], the “log P” value [1, 5] is listed as 5.45.

In the case of `CCOC(=O)C(C)(C)Oc1ccc(Cl)cc1` [clofibrate], the “log P” value [1, 5] is listed as 3.65.

In the case of `Cc1cc(C(C#N)c2ccc(Cl)cc2)c(Cl)cc1NC(=O)c1cc(I)cc(I)c1O` (centres unmarked) [closantel], the “log P” value [1, 5] is given as over 7.

For `O=C(Nc1ccc(Br)cc1)c1cc(Br)ccc1O` [dibromosalan], the “log P” value [1, 5] is listed as 5.18.

In the case of `CC(=O)O[C@@]12CO[C@@H]1C[C@H](O)[C@@]1(C)C(=O)[C@H](O)C3=C(C)[C@@H](OC(=O)[C@H](O)[C@@H](NC(=O)OC(C)(C)C)c4ccccc4)C[C@@](O)([C@@H](OC(=O)c4ccccc4)[C@H]21)C3(C)C` [docetaxel], the “solubility in water” value [2] is given as “insoluble in water”.

For `Cc1c2ccncc2c(C)c2c1[nH]c1ccccc12` [ellipticine], the “log P” value [1, 5] is given as 4.80.

In the case of `COC(=O)Nc1nc2ccc(Sc3ccccc3)cc2[nH]1` [fenbendazole], the “log P” value [1, 5] is given as 4.26.

For `CC(C)C(=O)Nc1ccc([N+](=O)[O-])c(C(F)(F)F)c1` [flutamide], the “log P” value [1, 5] is given as 3.5.

In the case of `Cc1ccc(C)c(OCCCC(C)(C)C(=O)O)c1` [gemfibrozil], the “log P” value [1, 5] is listed as 3.90.

For `CC1=C(/C=C/C(C)=C/C=C/C(C)=C\C(=O)O)C(C)(C)CCC1` [isotretinoin, 13-cis-retinoic acid], the “solubility in monoethyl ether of diethylene glycol (Transcutol)” value ([3]; cosurfactant Transcutol) was 3%.

In the case of `CCC(C)n1ncn(-c2ccc(N3CCN(c4ccc(OCC5COC(Cn6cncn6)(c6ccc(Cl)cc6Cl)O5)cc4)CC3)cc2)c1=O` (centres unmarked) [itraconazole], the “log P” value [1, 5] is listed as 5.68.

For `CO[C@@H]1[C@@H](O[C@@H]2O[C@H](C)[C@@H](O[C@H]3C[C@@](C)(O)[C@@H](OC(=O)CC(C)C)[C@H](C)O3)[C@H](N(C)C)[C@H]2O)[C@@H](CC=O)C[C@@H](C)[C@@H](O)/C=C/C=C/C[C@@H](C)OC(=O)C[C@H]1OC(C)=O` [josamycin], the “log P” value [1, 5] is listed as 2.39.

In the case of `CC[C@H](C)C(=O)O[C@H]1C[C@@H](C)C=C2C=C[C@H](C)[C@H](CC[C@@H]3C[C@@H](O)CC(=O)O3)[C@H]21` [lovastatin], the “log P” value [1, 5] is given as 4.04.

For `COC(=O)Nc1nc2ccc(C(=O)c3ccccc3)cc2[nH]1` [mebendazole], the “log P” value [1, 5] is given as 3.10.

For `Cc1cccc(Nc2ccccc2C(=O)O)c1C` [mefenamic acid], the “log P” value [1, 5] is given as 5.3.

For `OC(c1cc(C(F)(F)F)nc2c(C(F)(F)F)cccc12)C1CCCCN1` (centres unmarked) [mefloquin], the “log P” value [1, 5] is given as 3.36.

In the case of `CC1=CC(=O)c2ccccc2C1=O` [menadione], the “log P” value [1, 5] is given as 8.

In the case of `CC[C@H](C)C(=O)O[C@H]1CCC=C2C=C[C@H](C)[C@H](CC[C@@H]3C[C@@H](O)CC(=O)O3)[C@H]21` [mevastatin], the “log P” value [1, 5] is given as 3.52.

In the case of `CCOC(=O)C1=C(C)NC(C)=C(C(=O)OC)C1c1cccc([N+](=O)[O-])c1` (centres unmarked) [nitrendipine], the “log P” value [1, 5] is given as 3.7.

For `Cc1nccn1CC1CCc2c(c3ccccc3n2C)C1=O` (centres unmarked) [ondansetron], the “log P” value [1, 5] is listed as 2.63.

In the case of `O=C(Nc1cc(Cl)cc(Cl)c1O)c1c(O)c(Cl)cc(Cl)c1Cl` [oxyclozanide], the “log P” value [1, 5] is listed as 5.35.

In the case of `CC(=O)O[C@H]1C(=O)[C@@]2(C)[C@H]([C@H](OC(=O)c3ccccc3)[C@]3(O)C[C@H](OC(=O)[C@H](O)[C@@H](NC(=O)c4ccccc4)c4ccccc4)C(C)=C1C3(C)C)[C@]1(OC(C)=O)CO[C@@H]1C[C@@H]2O` [paclitaxel], the “solubility in water” value [2] is given as “insoluble in water”.

For `O=C1c2ccccc2C(=O)C1c1ccccc1` [phenyl indanedione], the “log P” value [1, 5] is listed as 2.90.

In the case of `CC(=O)[C@H]1CC[C@H]2[C@@H]3CCC4=CC(=O)CC[C@]4(C)[C@H]3CC[C@]12C` [progesterone], the “solubility in propylene glycol monocaprylate (Capryol)” value ([3]; cosurfactant Capryol) is reported as 5%.

For `O=C(Nc1ccc(Oc2ccc(Cl)cc2)c(Cl)c1)c1cc(I)cc(I)c1O` [rafoxanide], the “log P” value [1, 5] is listed as 8.75.

For `CC1=C(/C=C/C(C)=C/C=C/C(C)=C/CO)C(C)(C)CCC1` [retinol], the “log P” value [1, 5] is given as 5.68.

For `CC[C@H]1OC(=O)[C@H](C)[C@@H](O[C@H]2C[C@@](C)(OC)[C@@H](O)[C@H](C)O2)[C@H](C)[C@@H](O[C@@H]2O[C@H](C)C[C@H](N(C)C)[C@H]2O)[C@](C)(O)C[C@@H](C)/C(=N\OCOCCOC)[C@H](C)[C@@H](O)[C@]1(C)O` [roxithromycin], the “log P” value [1, 5] is listed as about 2.5.

In the case of `CCCc1nc2c(C)cc(-c3nc4ccccc4n3C)cc2n1Cc1ccc(-c2ccccc2C(=O)O)cc1` [telmisartan], the “log P” value [1, 5] is given as 4.8.

In the case of `CN(C/C=C/C#CC(C)(C)C)Cc1cccc2ccccc12` [terbinafin], the “log P” value [1, 5] is given as 5.42.

For `CC(C)(C)c1ccc(C(O)CCCN2CCC(C(O)(c3ccccc3)c3ccccc3)CC2)cc1` (centres unmarked) [terfenadine], the “log P” value [1, 5] is given as 3.22.

For `c1ccc2[nH]c(-c3cscn3)nc2c1` [tiabendazole], the “log P” value [1, 5] is listed as 2.31.

In the case of `OCCSCCCCCCCCCCSCCO` [tiadenol], the “log P” value [1, 5] is given as 4.58.

In the case of `O=C(Nc1ccc(Br)cc1)c1cc(Br)cc(Br)c1O` [tribromosalan], the “log P” value [1, 5] is given as 5.86.

In the case of `CSc1nc2cc(Cl)c(Oc3cccc(Cl)c3Cl)cc2[nH]1` [triclabendazole], the “log P” value [1, 5] is given as 6.45.

For `COC(=O)[C@@H]1[C@H]2C[C@H]3c4[nH]c5ccccc5c4CCN3C[C@@H]2CC[C@@H]1O` [yohimbine], the “log P” value [1, 5] is given as 2.73.

For ivermectin, the “partition coefficient chloroform/water: log P” value ([4]; chloroform/water) is given as 3, the “partition coefficient ethyl acetate/water: log P” value ([4]; ethyl acetate/water) is given as 4 and the “solubility in water” value [2] is given as “practically insoluble in water”.
